This passage reports IC50 results from patent US20080234332A1, “RAF KINASE INHIBITORS CONTAINING A ZINC BINDING MOIETY” (priority 2007, published 2008).

What all share (type): biochemical
The subject of experiment [1] is HDAC. In words: HDAC fluorimetric assay kit (HeLa nuclear extract). The settings on record: read-out: HDAC IC50 grade. As for the experimental part: HDAC inhibitors were screened using an HDAC fluorimetric assay kit (AK-500, Biomol, Plymouth Meeting, Pa.). […] Each assay was setup as follows: Defrosted all kit components and kept on ice until use. Diluted HeLa nuclear extract 1:29 in assay buffer (50 mM Tris/Cl, pH 8.0, 137 mM NaCl, 2.7 mM KCl, 1 mM MgCl2). Prepared dilutions of Trichostatin A (TSA, positive control) and tested compounds in assay buffer (5× of final concentration). Diluted Fluor de LysTM Substrate in assay buffer to 100 uM (50 fold=2× final). Diluted Fluor de LysTM developer concentrate 20-fold (e.g. 50 μl plus 950 μl assay buffer) in cold assay buffer. Second, diluted the 0.2 mM Trichostatin A 100-fold in the 1× Developer (e.g. 10 μl in 1 ml; final Trichostatin A concentration in the 1× Developer=2 μM; final concentration after addition to HDAC/Substrate reaction=1 μM). Added assay buffer, diluted trichostatin A or test inhibitor to appropriate wells of the microtiter plate. Added diluted HeLa extract or other HDAC sample to all wells except for negative controls. Allowed diluted Fluor de LysTM Substrate and the samples in the microtiter plate to equilibrate to assay temperature (e.g. 25 or 37° C. Initiated HDAC reactions by adding diluted substrate (25 μl) to each well and mixing thoroughly. Allowed HDAC reactions to proceed for 1 hour and then stopped them by addition of Fluor de LysTM Developer (50 μl). Incubated plate at room temperature (25° C.) for 10-15 min. Read samples in a microtiter-plate reading fluorimeter capable of excitation at a wavelength in the range 350-380 nm and detection of emitted light in the range 440-460 nm.
(§1) The following TABLE B lists compounds representative of the invention and their activity in HDAC, VEGFR2 and RAF assays.

Experiment [2] deals with T1, VEGFR2 (Homo sapiens, UniProt P35968).
T1 construct: GST (N); His6 (N); Thrombin cleavage site (N); purchased Cell Signaling Technologies; host or cells: baculovirus expression system
T1 sequence (P35968 805-1356): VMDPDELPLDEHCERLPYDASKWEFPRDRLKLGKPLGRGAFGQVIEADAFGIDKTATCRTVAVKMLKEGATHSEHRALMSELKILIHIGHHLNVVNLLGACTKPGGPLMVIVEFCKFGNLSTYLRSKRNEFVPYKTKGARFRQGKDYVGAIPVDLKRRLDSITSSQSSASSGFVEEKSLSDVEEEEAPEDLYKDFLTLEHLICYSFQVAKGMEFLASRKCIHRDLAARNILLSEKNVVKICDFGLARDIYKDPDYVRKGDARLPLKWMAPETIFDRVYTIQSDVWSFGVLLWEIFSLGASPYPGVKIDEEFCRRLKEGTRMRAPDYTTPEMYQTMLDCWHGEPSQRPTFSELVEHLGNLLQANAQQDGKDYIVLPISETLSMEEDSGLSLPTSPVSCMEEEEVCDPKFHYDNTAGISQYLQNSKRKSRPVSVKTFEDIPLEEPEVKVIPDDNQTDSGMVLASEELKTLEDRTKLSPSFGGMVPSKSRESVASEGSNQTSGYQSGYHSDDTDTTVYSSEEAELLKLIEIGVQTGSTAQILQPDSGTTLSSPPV
Put plainly: HTScan VEGFR2 Kinase Assay (DELFIA). As to conditions: 200 μM ATP; read-out: VEGFR2 IC50 grade. As for the experimental part:
The ability of compounds to inhibit VEGFR2 kinase activity was assayed using HTScan™ VEGFR2 Kinase Assay Kits (Cell Signaling Technologies, Danvers, Mass.). […] The protein was purified by one-step affinity chromatography using glutathione-agarose.
Immediately transfer enzyme from −80° C. to ice. Allowed enzyme to thaw on ice. […] Returned immediately to ice. […] Incubated reaction plate at room temperature for 30 minutes. […] Added 100 μl/well primary antibody. Incubated at room temperature for 60 minutes. […] Added 100 μl/well diluted antibody. Incubated at room temperature for 30 minutes. […] Incubated at room temperature for 5 minutes.
as §1

Experiment [3] has as its target PDGFRβ (Homo sapiens, UniProt P09619). In words: PDGFRβ kinase inhibition (Table B). The settings on record: read-out: PDGFRβ IC50 grade.
In experiment [4] the target is cKit (Homo sapiens, UniProt P10721). In words: cKit kinase inhibition (Table B). The settings on record: read-out: cKit IC50 grade.
Chain of cKit (P10721 26-976): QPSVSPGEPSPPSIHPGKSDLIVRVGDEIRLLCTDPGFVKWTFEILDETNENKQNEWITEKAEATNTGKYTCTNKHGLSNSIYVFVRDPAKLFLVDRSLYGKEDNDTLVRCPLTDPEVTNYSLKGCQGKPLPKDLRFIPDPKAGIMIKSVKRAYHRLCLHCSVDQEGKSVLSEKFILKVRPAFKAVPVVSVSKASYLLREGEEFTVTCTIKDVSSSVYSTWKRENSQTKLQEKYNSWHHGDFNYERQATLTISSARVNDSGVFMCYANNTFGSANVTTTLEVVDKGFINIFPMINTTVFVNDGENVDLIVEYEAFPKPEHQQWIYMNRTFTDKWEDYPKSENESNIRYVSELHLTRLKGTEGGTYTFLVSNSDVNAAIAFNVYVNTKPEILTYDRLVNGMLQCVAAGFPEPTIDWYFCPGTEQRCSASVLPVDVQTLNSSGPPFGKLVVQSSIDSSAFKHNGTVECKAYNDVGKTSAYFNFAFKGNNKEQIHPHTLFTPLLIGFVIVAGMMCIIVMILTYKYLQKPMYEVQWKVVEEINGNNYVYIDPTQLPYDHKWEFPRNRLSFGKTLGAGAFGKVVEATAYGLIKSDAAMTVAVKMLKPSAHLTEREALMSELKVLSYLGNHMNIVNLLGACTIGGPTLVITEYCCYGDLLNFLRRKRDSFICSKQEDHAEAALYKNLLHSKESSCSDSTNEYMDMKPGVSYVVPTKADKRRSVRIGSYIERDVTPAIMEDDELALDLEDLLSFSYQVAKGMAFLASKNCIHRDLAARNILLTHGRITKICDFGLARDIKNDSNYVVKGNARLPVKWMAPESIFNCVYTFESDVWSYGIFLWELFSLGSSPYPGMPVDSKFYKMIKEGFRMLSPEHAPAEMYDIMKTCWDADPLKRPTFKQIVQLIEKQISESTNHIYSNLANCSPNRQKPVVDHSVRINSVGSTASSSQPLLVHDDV

Chain of PDGFRβ (P09619 33-1106, species assumed): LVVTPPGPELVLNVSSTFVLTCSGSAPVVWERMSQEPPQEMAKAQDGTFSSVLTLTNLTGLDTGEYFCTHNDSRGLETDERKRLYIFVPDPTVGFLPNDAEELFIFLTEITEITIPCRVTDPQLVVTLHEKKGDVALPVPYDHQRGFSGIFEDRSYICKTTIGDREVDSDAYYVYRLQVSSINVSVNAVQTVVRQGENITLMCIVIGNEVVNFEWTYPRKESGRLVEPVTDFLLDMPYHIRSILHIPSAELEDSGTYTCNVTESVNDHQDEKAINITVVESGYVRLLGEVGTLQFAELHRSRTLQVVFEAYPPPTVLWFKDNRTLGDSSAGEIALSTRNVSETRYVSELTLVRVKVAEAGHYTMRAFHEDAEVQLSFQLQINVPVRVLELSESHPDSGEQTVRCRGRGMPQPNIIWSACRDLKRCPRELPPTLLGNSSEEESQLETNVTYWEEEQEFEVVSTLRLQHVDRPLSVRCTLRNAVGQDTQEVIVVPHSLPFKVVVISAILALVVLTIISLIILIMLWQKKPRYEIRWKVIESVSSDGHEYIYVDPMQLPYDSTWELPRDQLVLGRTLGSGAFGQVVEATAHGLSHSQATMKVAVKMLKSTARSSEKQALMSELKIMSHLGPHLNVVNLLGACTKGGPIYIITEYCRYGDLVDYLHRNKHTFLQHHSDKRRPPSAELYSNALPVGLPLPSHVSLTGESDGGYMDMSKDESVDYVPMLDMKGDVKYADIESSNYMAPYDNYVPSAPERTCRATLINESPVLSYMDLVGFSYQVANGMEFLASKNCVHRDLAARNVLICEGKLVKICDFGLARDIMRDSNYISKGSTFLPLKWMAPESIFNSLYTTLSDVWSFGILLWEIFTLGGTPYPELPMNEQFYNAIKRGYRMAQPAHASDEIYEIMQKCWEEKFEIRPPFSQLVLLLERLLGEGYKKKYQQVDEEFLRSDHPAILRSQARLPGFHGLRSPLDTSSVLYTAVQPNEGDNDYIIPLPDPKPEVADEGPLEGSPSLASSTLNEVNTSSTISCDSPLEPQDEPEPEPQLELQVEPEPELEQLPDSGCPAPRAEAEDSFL

As usually defined, the IC50 is the concentration at which inhibition is half-maximal. `O=C(CCCCC(=O)NCc1cc(Oc2ccc(NC(=O)Nc3ccc(Cl)c(C(F)(F)F)c3)cc2)ccn1)NO` [Compound 21, N^1-((4-(4-(3-(4-chloro-3(trifluoromethyl)phenyl)ureido)phenoxy)pyridin-2-yl)methyl)-N^6-hydroxyadipamide]: the IC50 in experiment [1] is 100 to 1000 nM; in experiment [2], less than 100 nM; in experiment [3] it was 100 to 1000 nM; in experiment [4] it was less than 100 nM. With `O=C(CCC(=O)NCc1cc(Oc2ccc(NC(=O)Nc3ccc(Cl)c(C(F)(F)F)c3)cc2)ccn1)NO` [Compound 19, N^1-((4-(4-(3-(4-chloro-3-(trifluoromethyl)phenyl)ureido)phenoxy)pyridin-2-yl)methyl)-N^4-hydroxysuccinamide], the IC50 in experiment [1] fell in the range of 100 to 1000 nM. As for `O=C(CCCC(=O)NCc1cc(Oc2ccc(NC(=O)Nc3ccc(Cl)c(C(F)(F)F)c3)cc2)ccn1)NO` [Compound 20, N^1-((4-(4-(3-(4-chloro-3(trifluoromethyl)phenyl)ureido)phenoxy)pyridin-2-yl)methyl)-N^5-hydroxyglutaramide], the IC50 was 100 to 1000 nM in experiment [1] and less than 100 nM in experiment [2]. In the case of `O=C(CCCn1ccc(Oc2ccc(NC(=O)Nc3ccc(Cl)c(C(F)(F)F)c3)cc2)cc1=O)NO` [Compound 25], in experiment [1], the IC50 was in the range of 1000 to 10000 nM. The same measure, in the same setting: for `O=C(CCCCCCOc1cc(Oc2ccc(NC(=O)Nc3ccc(Cl)c(C(F)(F)F)c3)cc2)ccn1)NO` [Compound 34] the value was 100 to 1000 nM; for `O=C(CCCCCNCc1cc(Oc2ccc(NC(=O)Nc3ccc(Cl)c(C(F)(F)F)c3)cc2)ccn1)NO` [Compound 16, 6-((4-(4-(3-(4-chloro-3-(trifluoromethyl)phenyl)ureido)phenoxy)pyridin-2-yl)methylamino)-N-hydroxyhexanamide], 100 to 1000 nM. The same measure, in the same setting: for `O=C(CCCCCOc1cc(Oc2ccc(NC(=O)Nc3ccc(Cl)c(C(F)(F)F)c3)cc2)ccn1)NO` [Compound 33] the value was 1000 to 10000 nM; for `O=C(CCCCC(=O)Nc1cc(Oc2ccc(NC(=O)Nc3ccc(Cl)c(C(F)(F)F)c3)cc2)ccn1)NO` [Compound 10, 1-(4-chloro-3-(trifluoromethyl)phenyl)-3-(4-(2-(6-(hydroxyamino)-6-oxohexanamido)pyridin-4-yloxy)phenyl)urea], 1000 to 10000 nM. For the compound `O=C(CCCCOc1cc(Oc2ccc(NC(=O)Nc3ccc(Cl)c(C(F)(F)F)c3)cc2)ccn1)NO` [Compound 32], the IC50 in experiment [1] was 100 to 1000 nM; in experiment [2], less than 100 nM. With `O=C(CCCCCn1ccc(Oc2ccc(NC(=O)Nc3ccc(Cl)c(C(F)(F)F)c3)cc2)cc1=O)NO` [Compound 27], in experiment [1], the IC50 is 100 to 1000 nM. For `O=C(CCCCCCCNC(=O)c1cc(Oc2ccc(NC(=O)Nc3ccc(Cl)c(C(F)(F)F)c3)cc2)ccn1)NO` [Compound 7, 4-(4-(3-(4-chloro-3-(trifluoromethyl)phenyl)ureido)phenoxy)-N-(8-(hydroxyamino)-8-oxooctyl)picolinamide], the IC50 is 1000 to 10000 nM in experiment [1], 100 to 1000 nM in experiment [2], 100 to 1000 nM in experiment [3] and less than 100 nM in experiment [4]. As to `O=C(Nc1ccc(Oc2ccnc(C(=O)NO)c2)cc1)Nc1ccc(Cl)c(C(F)(F)F)c1` [Compound 36, 4-(4-(3-(4-chloro-3-(trifluoromethyl)phenyl)ureido)phenoxy)-N-hydroxypicolinamide], the IC50 in experiment [1] was more than 10000 nM; in experiment [2] it was 1000 to 10000 nM. For `O=C(CCCCCCC(=O)NCc1cc(Oc2ccc(NC(=O)Nc3ccc(Cl)c(C(F)(F)F)c3)cc2)ccn1)NO` [Compound 23, N^1-((4-(4-(3-(4-chloro-3(trifluoromethyl)phenyl)ureido)phenoxy)pyridin-2-yl)methyl)-N^8-hydroxyoctanediamide], the 50% inhibitory concentration (IC50) is 100 to 1000 nM in experiment [1], less than 100 nM in experiment [2], 100 to 1000 nM in experiment [3] and less than 100 nM in experiment [4]. On to `C[C@@H](NC(=O)c1cc(Oc2ccc(NC(=O)Nc3ccc(Cl)c(C(F)(F)F)c3)cc2)ccn1)C(=O)NO` [Compound 1, (R)-4-(4-(3-(4-chloro-3-(trifluoromethyl)phenyl)ureido)phenoxy)-N-(1-(hydroxyamino)-1-oxopropan-2-yl)picolinamide], for which, in experiment [1], the IC50 was in the range of 1000 to 10000 nM. Regarding `O=C(CCCCCCNCc1cc(Oc2ccc(NC(=O)Nc3ccc(Cl)c(C(F)(F)F)c3)cc2)ccn1)NO` [Compound 17, 7-((4-(4-(3-(4-chloro-3-(trifluoromethyl)phenyl)ureido)phenoxy)pyridin-2-yl)methylamino)-N-hydroxyheptanamide], the IC50 in experiment [1] and in experiment [2] was 100 to 1000 nM each time.

As for `O=C(CCCCCCNC(=O)c1cc(Oc2ccc(NC(=O)Nc3ccc(Cl)c(C(F)(F)F)c3)cc2)ccn1)NO` [Compound 6, 4-(4-(3-(4-chloro-3-(trifluoromethyl)phenyl)ureido)phenoxy)-N-(7-(hydroxyamino)-7-oxoheptyl)picolinamide], the IC50 in experiment [1] lay in the range of 100 to 1000 nM.

`O=C(CCCCn1ccc(Oc2ccc(NC(=O)Nc3ccc(Cl)c(C(F)(F)F)c3)cc2)cc1=O)NO` [Compound 26]: the IC50 in experiment [1] was in the range of 1000 to 10000 nM.

With `O=C(CCCC(=O)Nc1cc(Oc2ccc(NC(=O)Nc3ccc(Cl)c(C(F)(F)F)c3)cc2)ccn1)NO` [Compound 9, 1-(4-chloro-3-(trifluoromethyl)phenyl)-3-(4-(2-(5-(hydroxyamino)-5-oxopentanamido)pyridin-4-yloxy)phenyl)urea], the figures for the IC50 in experiment [1] and in experiment [2] were 100 to 1000 nM and less than 100 nM, respectively.

In the case of `O=C(CCCOc1cc(Oc2ccc(NC(=O)Nc3ccc(Cl)c(C(F)(F)F)c3)cc2)ccn1)NO` [Compound 31], the half-maximal inhibitory concentration (IC50) in experiment [1] lay in the range of 1000 to 10000 nM. As for `O=C(CCCCCCn1ccc(Oc2ccc(NC(=O)Nc3ccc(Cl)c(C(F)(F)F)c3)cc2)cc1=O)NO` [Compound 28], in experiment [1], the half-inhibitory concentration (IC50) fell in the range of 100 to 1000 nM. Regarding `O=C(CCCCCCCNCc1cc(Oc2ccc(NC(=O)Nc3ccc(Cl)c(C(F)(F)F)c3)cc2)ccn1)NO` [Compound 18, 8-((4-(4-(3-(4-Chloro-3-(trifluoromethyl)phenyl)ureido)phenoxy)pyridin-2-yl)methylamino)-N-hydroxyoctanamide], the IC50 in experiment [1] and in experiment [2] was 100 to 1000 nM each time.

For `O=C(CCCNC(=O)c1cc(Oc2ccc(NC(=O)Nc3ccc(Cl)c(C(F)(F)F)c3)cc2)ccn1)NO` [Compound 3, 4-(4-(3-(4-chloro-3-(trifluoromethyl)phenyl)ureido)phenoxy)-N-(4-(hydroxyamino)-4-oxobutyl)picolinamide], in experiment [1], the IC50 lay in the range of 1000 to 10000 nM.
